{
  "source": "patent US20040254238A1",
  "about": "“Bone growth stimulation with NO/statin and other NO modulating combinations” (OSTEOSCREEN, priority 2003, published 2004)",
  "molecules": {"B1": {"name": "BMP-4: recombinant bone morphogenic protein (protein, UniProt P12644 293-408, looked up)", "Bone morphogenetic protein 4": "SPKHHSQRARKKNKNCRRHSLYVDFSDVGWNDWIVAPPGYQAFYCHGDCPFPLADHLNSTNHAIVQTLVNSVNSSIPKACCVPTELSAISMLYLDEYDKVVLKNYQEMVVEGCGCR"}},
  "key": {"neonatal murine calvaria": {"system": "neonatal murine calvaria", "details": "L-arginine alone, 20 μM", "quoted_text": "Selected compounds and appropriate controls were assayed in vitro (ex vivo) for bone formation activity (described above in “In Vitro Neonatal Mouse Calvaria Assay”). Histomorphometrical assessments of ex vivo calvaria were carried out using an OsteoMetrics bone morphometry measurement program, according to the manufacturer's instructions. Measurements were determined using either a 10- or 20-fold objective with a standard point counting eyepiece graticule."}, "three month old S-D rats": {"system": "three month old S-D rats", "assay": "Bone mineral density in rats treated orally by gavage for 16 weeks", "format": "in vivo, rat", "details": "oral gavage, S-D rats (FIG. 4 lower panel)", "procedure": "Statin equivalence: 100 mg/kg/day=0.72 mg/day; 400 mg/kg/day=2.9 mg/day; and 800 mg/kg/day=5.8 mg/day.\nIn this experiment, experimental groups of three month old S-D rats were used. Food was removed from the cages 6 hours prior to dosing. The animals were then treated orally by gavage once a day with vehicle (0.5% methylcellulose), lovastatin, or OsteoPure™ (lovastatin-containing reduced rice extract). OsteoPure™ was administered at 100, 400, or 800 mg/kg/day five days a week for 16 weeks. The statin equivalence in OsteoPure™ is 100 mg/kg/day=0.72 mg/day; 400 mg/kg/day=2.9 mg/day; and 800 mg/kg/day=5.8 mg/day. Rats were weighed weekly. Bone mineral density (BMD) were analyzed every four weeks. In the upper panel, the bone mineral densities (BMDs) are shown. In the lower panel, the % change in BMDs of the experimental over the 16 weeks is shown. […] This trend is confirmed in the long term analysis of percent change in BMDs shown in the lower panel."}, "bone resorption": {"system": "bone resorption", "details": "lipid clearing agents; Wang et al. 1995; cited from earlier work"}, "osteoprogenitor cells": {"system": "osteoprogenitor cells", "details": "cells treated with dexamethasone in vitro; Cui et al. 1996; cited from earlier work"}, "bone mass": {"system": "bone mass", "details": "Horiuchi et al. 2001, Kinoshita et al. 2000; cited from earlier work"}, "rats": {"system": "rats", "details": "injected locally into the subcutaneous tissues of rats; Wozney 1992; cited from earlier work"}},
  "data": [
    {"molecule": "N=C(N)NCCC[C@H](N)C(=O)O", "note": "[L-arginine]", "values": [
      {"measurement": "bone formation", "setting": "neonatal murine calvaria", "value": "induces bone formation"}
    ]},
    {"molecule": "CC[C@H](C)C(=O)O[C@H]1C[C@@H](C)C=C2C=C[C@H](C)[C@H](CC[C@@H]3C[C@@H](O)CC(=O)O3)[C@H]21", "note": "[lovastatin]", "values": [
      {"measurement": "percent change in BMDs over 16 weeks, co-administered with L-arginine relative to the agent alone", "setting": "three month old S-D rats", "value": "greater increase in BMDs"},
      {"measurement": "bone resorption induced by steroid administration", "setting": "bone resorption", "value": "inhibit bone resorption induced by steroid administration"},
      {"measurement": "triglyceride vesicles in osteoprogenitor cells", "setting": "osteoprogenitor cells", "value": "diminished triglyceride vesicles"}
    ]},
    {"molecule": "CC(=O)CCCCn1c(=O)c2c(ncn2C)n(C)c1=O", "note": "[pentoxifylline]", "values": [
      {"measurement": "bone mass", "setting": "bone mass", "value": "increase bone mass by promoting bone formation"}
    ]},
    {"molecule": "COc1ccc(C2CNC(=O)C2)cc1OC1CCCC1", "note": "(stereo not shown) [rolipram]", "values": [
      {"measurement": "bone mass", "setting": "bone mass", "value": "increase bone mass by promoting bone formation"}
    ]},
    {"molecule": "B1", "values": [
      {"measurement": "new bone formation", "setting": "rats", "value": "can induce new bone formation"}
    ]}
  ]
}
